The nature of series [1]: absorption spectrum (maximum absorption wavelength, molar extinction coefficient). The class given is physicochemical.
Series [2] in a line: singlet oxygen efficiency test, reference rose bengal. The class given is physicochemical.

Structures are written as SMILES.

In the case of `COc1c(NC(C(=O)O)C(C)C)c2c(=O)cc(OC)c3c4c(OC)cc(=O)c5c(O)c(NC(C(=O)O)C(C)C)c6c(c(c1C(C(C)=O)C(C)=C6)c23)c54` (stereo not drawn) [HB-22b], in series [1], the maximum absorption wavelength amounted to 618 nm and the molar extinction coefficient is 21,000 M^−1cm^−1. This compound yielded a singlet oxygen yield in series [2] of 19%.

Consider `COc1c(O)c2c(=O)cc(OC)c3c4c(OC)c(Br)c(=O)c5c(NCCNCCOCCO)c(NCCNCCOCCO)c6c(c(c1C(C(C)=O)C(C)=C6)c23)c54` (stereo not drawn) [HB-5a-Br-PEG1], for which, in series [1], the maximum absorption wavelength came to 622 nm and the molar extinction coefficient was 30,500 M^−1cm^−1. For the same compound, the singlet oxygen yield in series [2] is 28%.

`COc1c(O)c2c(=O)cc(OC)c3c4c(OC)cc(=O)c5c(NC(CC(=O)O)C(=O)O)c(NC(CC(=O)O)C(=O)O)c6c(c(c1C(C(C)=O)C(C)=C6)c23)c54` (stereo not drawn) [HB-27a]: in series [1], the maximum absorption wavelength stood at 621 nm and the molar extinction coefficient is given as 20,500 M^−1cm^−1. Also, the singlet oxygen yield in series [2] was determined as 18%.

In the case of `COc1c2c3c4c(c(NCCCCCC(=O)O)c(=O)c5c(O)cc(OC)c(c6c(OC)cc(NCCCCCC(=O)O)c(c1=O)c63)c54)C=C(C)C2` [HC-9d], in series [1], the maximum absorption wavelength stood at 624 nm and the molar extinction coefficient is 25,000 M^−1cm^−1. The same compound displayed a singlet oxygen yield in series [2] of 26%.

Regarding `COCCOCCOCCOCCOC(=O)C1CCC(CNc2c3c4c5c(c(OC)c(=O)c6c(O)cc(OC)c(c7c(OC)cc(NCC8CCC(C(=O)OCCOCCOCCOCCOC)CC8)c(c2=O)c74)c65)C(C(C)=O)C(C)=C3)CC1` (stereo not drawn) [HB-13c-PEG4], in series [1], the maximum absorption wavelength was found to be 630 nm and the molar extinction coefficient was 32,500 M^−1cm^−1. The compound further registered a singlet oxygen yield in series [2] of 38%.

`COc1c2c3c4c(c(NCCCC(=O)O)c(=O)c5c(O)cc(OC)c(c6c(OC)cc(NCCCC(=O)O)c(c1=O)c63)c54)C=C(C)C2C(C)=O` (stereo not drawn) [HB-8d]: in series [1], the maximum absorption wavelength worked out at 624 nm and the molar extinction coefficient is reported as 29,000 M^−1cm^−1. For the same compound, in series [2], the singlet oxygen yield is 26%.

For the compound `COc1c2c3c4c(c(NCc5ccccn5)c(=O)c5c(O)cc(OC)c(c6c(OC)cc(NCc7ccccn7)c(c1=O)c63)c54)C=C(C)C2C(C)=O` (stereo not drawn) [HB-38d], in series [1], the maximum absorption wavelength is 624 nm and the molar extinction coefficient is recorded as 18,500 M^−1cm^−1. Also, in series [2], the singlet oxygen yield worked out at 17%.

Turning to `COCCOCCC(=O)OC1CCC(Nc2c(NC3CCC(OC(=O)CCOCCOC)C3)c3c(=O)cc(OC)c4c5c(OC)cc(=O)c6c(O)c(OC)c7c(c(c2C=C(C)C7C(C)=O)c34)c65)C1` (stereo not drawn) [HB-20a-PEG1], in series [1], the maximum absorption wavelength worked out at 624 nm and the molar extinction coefficient is listed as 31,000 M^−1cm^−1. In addition, the singlet oxygen yield in series [2] turned out to be 30%.

As for `COCCOCCOCCOCCOCCOCCOCCOCCOCCOCCOCCOCCOC(=O)C1CCCC(Nc2c3c4c5c(c(OC)c(=O)c6c(O)cc(OC)c(c7c(OC)cc(NC8CCCC(C(=O)OCCOCCOCCOCCOCCOCCOCCOCCOCCOCCOCCOCCOC)C8)c(c2=O)c74)c65)C(C(C)=O)C(C)=C3)C1` (stereo not drawn) [HB-15c-PEG12], in series [1], the maximum absorption wavelength is recorded as 630 nm and the molar extinction coefficient was 33,000 M^−1cm^−1. This compound also displayed a singlet oxygen yield in series [2] of 35%.

Consider `COc1c(NCC(=O)O)c2c(=O)cc(OC)c3c4c(OC)cc(=O)c5c(O)c(NCC(=O)O)c6c(c(c1CC(C)=C6)c23)c54` [HC-7b], for which, in series [1], the maximum absorption wavelength came out at 622 nm and the molar extinction coefficient is 28,500 M^−1cm^−1. This compound gave a singlet oxygen yield in series [2] of 25%.

Take `COCCOCCN1C(=O)CN(C(=O)OCCNc2c(NCCOC(=O)N3CC(=O)N(CCOCCOC)C(=O)C3)c3c(=O)cc(OC)c4c5c(OC)cc(=O)c6c(O)c(OC)c7c(c(c2C=C(C)C7C(C)=O)c34)c65)CC1=O` (stereo not drawn) [HB-40a-PEG1]: in series [1], the maximum absorption wavelength is 624 nm and the molar extinction coefficient was 31,500 M^−1cm^−1. The same compound displayed a singlet oxygen yield in series [2] of 32%.

As for `COc1c(O)c2c(=O)cc(OC)c3c4c(OC)cc(=O)c5c(NCCOC(=O)N6CC(=O)NC(=O)C6)c(NCCOC(=O)N6CC(=O)NC(=O)C6)c6c(c(c1C(C(C)=O)C(C)=C6)c23)c54` (stereo not drawn) [HB-40a], in series [1], the maximum absorption wavelength was determined as 620 nm and the molar extinction coefficient was 31,000 M^−1cm^−1. Also, in series [2], the singlet oxygen yield was found to be 30%.

For `COCCOCCOCCOCCOCCOCCOCCOCCOCCOCCOCCOCCOCCC(=O)OCCOCCNc1c2c3c4c(c(OC)c(=O)c5c(O)cc(OC)c(c6c(OC)cc(NCCOCCOC(=O)CCOCCOCCOCCOCCOCCOCCOCCOCCOCCOCCOCCOCCOC)c(c1=O)c63)c54)CC(C)=C2` [HC-1c-PEG12], in series [1], the maximum absorption wavelength is listed as 626 nm and the molar extinction coefficient was 32,500 M^−1cm^−1. Moreover, the singlet oxygen yield in series [2] stood at 35%.

Regarding `COc1c2c3c4c(c(NCCCCCCS(=O)(=O)O)c(=O)c5c(NCCCCCCS(=O)(=O)O)cc(OC)c(c6c(OC)cc(O)c(c1=O)c63)c54)C=C(C)C2C(C)=O` (stereo not drawn) [HB-11c-C6-SO3H], in series [1], the maximum absorption wavelength came to 626 nm and the molar extinction coefficient is 31,500 M^−1cm^−1. The compound further had a singlet oxygen yield in series [2] of 38%.

With `COCCOCCOCCOCCOCCOCCOCCOCCOCCOCCOCCOCCOCCC(=O)N1CCC(CNc2c3c4c5c(c(OC)c(=O)c6c(NCC7CCN(C(=O)CCOCCOCCOCCOCCOCCOCCOCCOCCOCCOCCOCCOCCOC)CC7)cc(OC)c(c7c(OC)c(Br)c(O)c(c2=O)c47)c65)C(C(C)=O)C(C)=C3)CC1` (stereo not drawn) [HB-31d-Br-PEG12], in series [1], the maximum absorption wavelength is recorded as 632 nm and the molar extinction coefficient is 31,500 M^−1cm^−1. In series [2], the singlet oxygen yield came out at 33%.

Regarding `CCNNc1c2c3c4c(c(OC)c(=O)c5c(NNCC)cc(OC)c(c6c(OC)cc(O)c(c1=O)c63)c54)C(C(C)=O)C(C)=C2` (stereo not drawn) [HB-36d], in series [1], the maximum absorption wavelength stood at 621 nm and the molar extinction coefficient is 32,000 M^−1cm^−1. In addition, in series [2], the singlet oxygen yield worked out at 32%.

As to `COc1c2c3c4c(c(NCCC5CCC(O)CC5)c(=O)c5c(NCCC6CCC(O)CC6)cc(OC)c(c6c(OC)cc(O)c(c1=O)c63)c54)C=C(C)C2C(C)=O` (stereo not drawn) [HB-18c], in series [1], the maximum absorption wavelength is 624 nm and the molar extinction coefficient is on record as 23,500 M^−1cm^−1. Besides, in series [2], the singlet oxygen yield was found to be 23%.

For `COc1c(NCC2CCC(C(=O)OCCCC[N+](C)(C)C)CC2)c2c(=O)cc(OC)c3c4c(OC)cc(=O)c5c(O)c(NCC6CCC(C(=O)OCCCC[N+](C)(C)C)CC6)c6c(c(c1CC(C)=C6)c23)c54` (stereo not drawn) [HC-13b-C4-N^+], in series [1], the maximum absorption wavelength was found to be 624 nm and the molar extinction coefficient is on record as 31,500 M^−1cm^−1. This compound yielded a singlet oxygen yield in series [2] of 36%.

For the compound `COc1c(O)c2c(=O)cc(OC)c3c4c(OC)cc(=O)c5c(NC6CCC(C(=O)O)CC6)c(NC6CCC(C(=O)O)CC6)c6c(c(c1C(C(C)=O)C(C)=C6)c23)c54` (stereo not drawn) [HB-14a], in series [1], the maximum absorption wavelength is given as 625 nm and the molar extinction coefficient was 27,000 M^−1cm^−1. This compound came in with a singlet oxygen yield in series [2] of 25%.

Take `COCCOCCC(=O)OC1CCC(Nc2c(NC3CCC(OC(=O)CCOCCOC)CC3)c3c(=O)cc(OC)c4c5c(OC)cc(=O)c6c(O)c(OC)c7c(c(c2C=C(C)C7C(C)=O)c34)c65)CC1` (stereo not drawn) [HB-17a-PEG1]: in series [1], the maximum absorption wavelength stood at 622 nm and the molar extinction coefficient is recorded as 30,500 M^−1cm^−1. Besides, the singlet oxygen yield in series [2] is 30%.

The values above are taken from patent publication US11439707B2, “Hypocrellin derivative substituted both in a peri-position and in 2-position by amino, preparation method, and application thereof” (priority 2017, dated 2022).
